Assay results reported in the NIST ThermoML archive (doi:10.1016/j.jct.2011.10.009).

Assay: xn = mol fraction of the nth substance listed
Details: 101 kPa, Liquid, Vibrating tube method

[2H]C(C)O (stereo not given) [ethanol-1-d] + [2H]O[2H]
mass density [kg/m3]
Details	278.15 K	288.15 K	298.15 K	308.15 K	318.15 K
x2 = 0.001004	819.11	810.48	801.72	792.83	783.78
x2 = 0.00168	819.21	810.58	801.83	792.94	783.89
x2 = 0.00308	819.43	810.8	802.05	793.15	784.1
x2 = 0.005192	819.67	811.12	802.37	793.47	784.42
x2 = 0.008159	820.22	811.58	802.83	793.93	784.87
x2 = 0.01089	820.65	812.01	803.25	794.34	785.28
x2 = 0.01426	821.17	812.53	803.76	794.86	785.79
x2 = 0.0173	821.64	813	804.23	795.32	786.25
x2 = 0.02028	822.1	813.46	804.69	795.77	786.7
x2 = 0.02325	822.56	813.91	805.14	796.22	787.14
x2 = 0.02639	823.05	814.4	805.62	796.7	787.61
x2 = 0.03026	823.65	814.99	806.21	797.28	788.19
x2 = 0.03472	824.23	815.57	806.78	797.85	788.76
x2 = 0.03723	824.72	816.06	807.27	798.33	789.23

CCO [ethanol] + O
mass density [kg/m3]
Details	278.15 K	288.15 K	298.15 K	308.15 K	318.15 K
x2 = 0.0009961	802.2	793.72	785.15	776.47	767.66
x2 = 0.002144	802.34	793.86	785.29	776.61	767.79
x2 = 0.004143	802.59	794.1	785.53	776.85	768.03
x2 = 0.00674	802.91	794.42	785.85	777.16	768.34
x2 = 0.009286	803.22	794.73	786.16	777.47	768.65
x2 = 0.01189	803.54	795.06	786.48	777.79	768.96
x2 = 0.01442	803.85	795.37	786.79	778.09	769.26
x2 = 0.01794	804.29	795.8	787.22	778.52	769.69
x2 = 0.02115	804.68	796.2	787.61	778.92	770.08
x2 = 0.02506	805.17	796.68	788.1	779.4	770.56
x2 = 0.0292	805.69	797.2	788.61	779.91	771.06
x2 = 0.03125	805.94	797.46	788.87	780.16	771.31
x2 = 0.0336	806.24	797.75	789.16	780.45	771.6
x2 = 0.03661	806.61	798.13	789.54	780.83	771.97
